According to patent US11013698B2, “Combinations of LSD1 inhibitors for the treatment of hematological malignancies” (Oryzon Genomics S.A., priority 2016, dated 2021):

Columns and labels:
Assay in all cases: Viability assay (96 hours), Alamar Blue
Assay type in all cases: cell-based
[1] = test system: THP-1; details: THP-1, 96 hours; for EC50: Homo sapiens, single agent, read-out: EC50 (viability); for Reduction of viability (compared to vehicle controls): serial 1:3 dilution
Protocol: (§1) AML cell lines were maintained in RPMI 10% FBS medium at 37° C. in a humidified incubator with controlled 5% CO2 atmosphere. Cell freezing and thawing was performed following recommendation from ATCC. Genetic profiling of the cell lines used is available in table 2. Cells were seeded at the optimal density (to guarantee linear growth during the treatment), as previously determined (4000 cells/well, except 16000 cells/well in the case of KASUMI-1 cells), in 96-well plates with 50 μL of medium. Three wells were reserved for each experimental condition; medium-only and vehicle-treated controls were also added for background correction and normalization respectively. […] Alamar Blue® is a cell viability indicator that uses the natural reducing power of living cells to convert resazurin to the fluorescent molecule, resorufin^43.

[2] = test system: OCI-AML3; details: OCI-AML3, 96 hours; for EC50: Homo sapiens, OCI-AML-3, single agent, read-out: EC50 (viability); for Reduction of viability (compared to vehicle controls): serial 1:3 dilution
Protocol: as §1

[3] = test system: OCI-AML2; details: OCI-AML2, 96 hours; for EC50: Homo sapiens, single agent, read-out: EC50 (viability); for Reduction of viability (compared to vehicle controls): serial 1:3 dilution
Protocol: as §1

[4] = test system: MOLM-13; details: MOLM-13, 96 hours; for EC50: Homo sapiens, single agent, read-out: EC50 (viability); for Reduction of viability (compared to vehicle controls): serial 1:3 dilution
Protocol: as §1

[5] = test system: HL-60; details: HL-60, 96 hours; for Reduction of viability (compared to vehicle controls): serial 1:3 dilution; for EC50: Homo sapiens, single agent, read-out: EC50 (viability)
Protocol: as §1

[6] = test system: MV(4;11); details: MV(4;11), 96 hours; for EC50: Homo sapiens, MV4-11, single agent, read-out: EC50 (viability); for Reduction of viability (compared to vehicle controls): serial 1:3 dilution
Protocol: as §1

[7] = test system: KASUMI-1; details: KASUMI-1, 96 hours; for EC50: Homo sapiens, single agent, read-out: EC50 (viability); for Reduction of viability (compared to vehicle controls): serial 1:3 dilution
Protocol: as §1

| Structure (SMILES) | EC50 [1] | EC50 [2] | EC50 [3] | EC50 [4] | EC50 [5] | Reduction of viability (compared to vehicle controls) [1] | Reduction of viability (compared to vehicle controls) [2] | Reduction of viability (compared to vehicle controls) [3] | Reduction of viability (compared to vehicle controls) [4] | Reduction of viability (compared to vehicle controls) [5] | EC50 [6] | Reduction of viability (compared to vehicle controls) [6] | EC50 [7] | Reduction of viability (compared to vehicle controls) [7] |
| --- | --- | --- | --- | --- | --- | --- | --- | --- | --- | --- | --- | --- | --- | --- |
| COc1ccc(C2=N[C@@H](c3ccc(Cl)cc3)[C@@H](c3ccc(Cl)cc3)N2C(=O)N2CCNC(=O)C2)c(OC(C)C)c1 [Nutlin3A, 4-[[(4S,5R)-4,5-bis(4-chlorophenyl)-4,5-dihydro-2-[4-methoxy-2-(1-methylethoxy)phenyl]-1H-imidazol-1-yl]carbonyl]-2-piperazinone] | 324 nM | 659 nM | 446 nM | 128 nM | – | greater than 20% | greater than 20% | greater than 20% | greater than 20% | – | – | – | – | – |
| Nc1ncn([C@@H]2O[C@H](CO)[C@@H](O)[C@H]2O)c(=O)n1 [Azacitidine] | 2880 nM | 889 nM | 1850 nM | 323 nM | 1810 nM | greater than 20% | greater than 20% | greater than 20% | greater than 20% | greater than 20% | 1110 nM | greater than 20% | 2280 nM | greater than 20% |
| CC(C)(C)c1cc(NC(=O)Nc2ccc(-c3cn4c(n3)sc3cc(OCCN5CCOCC5)ccc34)cc2)no1 [Quizartinib] | – | – | 830 nM | < 1 nM | – | – | – | greater than 20% | greater than 20% | – | < 1 nM | greater than 20% | – | – |
| CC1=C(/C=C/C(C)=C/C=C/C(C)=C/C(=O)O)C(C)(C)CCC1 [ATRA, all-trans retinoic acid] | 1.7 nM | 0.8 nM | 5.9 nM | 4.8 nM | 2.7 nM | greater than 20% | greater than 20% | greater than 20% | greater than 20% | greater than 20% | 2.8 nM | greater than 20% | – | – |

Now from value to molecule, other results behind:

| EC50 [1] | EC50 [2] | EC50 [3] | EC50 [4] | EC50 [5] | Structure (SMILES) | Reduction of viability (compared to vehicle controls) [1] | Reduction of viability (compared to vehicle controls) [2] | Reduction of viability (compared to vehicle controls) [3] | Reduction of viability (compared to vehicle controls) [4] | Reduction of viability (compared to vehicle controls) [5] | EC50 [6] | Reduction of viability (compared to vehicle controls) [6] | EC50 [7] | Reduction of viability (compared to vehicle controls) [7] |
| --- | --- | --- | --- | --- | --- | --- | --- | --- | --- | --- | --- | --- | --- | --- |
| – | – | – | 108 nM | – | CC(C)N(CCCNC(=O)Nc1ccc(C(C)(C)C)cc1)C[C@H]1O[C@@H](n2ccc3c(N)ncnc32)[C@H](O)[C@@H]1O [EPZ004777, 7-[5-Deoxy-5-[[3-[[[[4-(1,1-dimethylethyl)phenyl]amino]carbonyl]amino]propyl](1-methylethyl)amino]-β-D-ribofuranosyl]-7H-pyrrolo[2,3-d]pyrimidin-4-amine] | – | – | – | greater than 20% | – | 118 nM | greater than 20% | – | – |
| – | – | – | 44.7 nM | – | CC(C)N(C[C@H]1O[C@@H](n2cnc3c(N)ncnc32)[C@H](O)[C@@H]1O)[C@H]1C[C@@H](CCc2nc3cc(C(C)(C)C)ccc3[nH]2)C1 [EPZ5676, Pinometostat] | – | – | – | greater than 20% | – | 16 nM | greater than 20% | – | – |
| – | – | 14 nM | 25 nM | 113 nM | CN(C)CC[C@H](CSc1ccccc1)Nc1ccc(S(=O)(=O)NC(=O)c2ccc(N3CCN(Cc4ccccc4-c4ccc(Cl)cc4)CC3)cc2)cc1[N+](=O)[O-] [ABT737, 4-[4-[[2-(4-chlorophenyl)phenyl]methyl]piperazin-1-yl]-N-[4-[[(2R)-4-(dimethylamino)-1-phenylsulfanylbutan-2-yl]amino]-3-nitrophenyl]sulfonylbenzamide] | – | – | greater than 20% | greater than 20% | greater than 20% | 6.3 nM | greater than 20% | 124 nM | greater than 20% |
